Test results reported in US20160122313A1, “COMPOSITIONS AND METHODS FOR THE TREATMENT OF DIABETES” (priority 2014, published 2016).

Columns and labels:
[1] = tested on: Diabetic Rats; assay: Effect on serum glucose, body weight and HbA1c in STZ/nicotinamide-induced type 2 diabetic rats, 4 weeks treatment; format: in vivo, rat; details: diabetic rats (STZ 65 mg/kg + NIC 150 mg/kg i.p.), 30 mg/kg/day; for Glucose: serum glucose
Experimental: (§1) Effect of Nateglinide alone and Formula I (1-2) on Serum Glucose, Body Weights and HbAlc in Non-Diabetic and Diabetic Rats:
Type 2 Diabetes was induced in overnight fasted rats by a single intraperitoneal injection of 65 mg/kg Streptozotocin (STZ), 15 min after the i.p administration of 150 mg/kg of Nicotinamide (NIC). After 7 days following STZ and NIC administration, blood was collected from tail vein and serum samples were analyzed for blood glucose. Animals showing fasting blood glucose higher than 300 mg/dl were considered as diabetic and were used for the study.
(§2) Methods: Animals were divided in to following groups, each group containing 6 animals and the treatment period for whole study was 4 weeks.
Group 4: Diabetic control, single injection of STZ (65 mg/kg, i.p) and NIC (150 mg/kg, i.p, DB-CON).
Group 5: Diabetic rats (DB) treated with NAT (30 mg/kg/day, DB-NAT).
Group 6: Diabetic rats treated with Formula I (1-2) (30 mg/kg/day, p.o)
(§3) Effect of Nateglinide (30 mg/kg/day, p.o) and Formula I (30 mg/kg/day, p.o) on Changes in Body Weight, Serum Glucose and HbAlc Level in Nondiabetic and Diabetic Rats.

[2] = tested on: Non-Diabetic Rats; assay: Effect on serum glucose, body weight and HbA1c in nondiabetic rats, 4 weeks treatment; format: in vivo, rat; details: 30 mg/kg/day p.o.; for Glucose: serum glucose
Experimental: as §1, §2
Group 1: Nondiabetic (ND) control, received CMC as vehicle (1 ml/kg/day, p.o, NDCON).
Group 2: Nondiabetic group treated with Nateglinide (NAT) (30 mg/kg/day, p.o, ND-NAT).
Group 3: Nondiabetic group treated with Formula I (1-2) (30 mg/kg/day, p.o)
as §3

Row | Structure (SMILES) | (%, HbA1c) [1] | Glucose [1] [mg/dL] | (%, HbA1c) [2] | Body weight (gm) [2] | Glucose [2] [mg/dL] | Body weight (gm) [1]
1 | CC(C)[C@H]1CCC[C@H](C(=O)N[C@H](Cc2ccccc2)OC(=O)OC(=O)CCCC[C@]2(C)CCSS2)C1 [FORMULA I] | 4.01 +/− 0.72% | 99.1 ± 12.1 | 4.21 +/− 0.67% | 265.1 +/− 9.3 gm | 77.87 ± 9.67 | –
2 | CC(C)[C@H]1CC[C@H](C(=O)N[C@H](Cc2ccccc2)C(=O)O)CC1 [NAT, Nateglinide] | 6.78 +/− 0.98% | 170.7 ± 13.21 | 5.04 +/− 0.30% | 224.0 +/− 7.23 gm | 70.21 ± 5.6 | 219.8 +/− 50.28 gm
